Experiments:
Assay type in all cases: cell-based, human
PC-3 cells = test: Anti-proliferative toxicity against prostate cancer cell line PC-3 (CCK8); conditions: Homo sapiens, 72 h, 3 days
Experimental: (§1) Example 82: Detection of Anti-Proliferative Toxicity Against Prostate Cancer Cell Lines Vcap, 22Rv1, and PC-3
PC-3 cells (purchased from the Cell Bank of the Chinese Academy of Sciences, Cat. No. SCSP-532) were subcultured in a culture medium (F12K medium+1% penicillin-streptomycin dual-antibiotic solution+10% fetal bovine serum) in an incubator at 5% carbon dioxide and 37° C.
PC-3 cells were seeded at 4000 cells/well (90 μL) on a 96-well plate and cultured for 24 h.
(§2) 10 mM compound stock solutions were prepared in DMSO.
(§3) For 22Rv1 cells and PC-3 cells, the compound stock solution was diluted with DMSO to give DMSO solutions 11-19 at concentrations of 0 μM, 500 μM, 100 μM, 20 μM, 4 μM, 0.8 μM, 0.16 μM, 0.032 μM, 0.0064 μM.
For PC-3 cells, 2 μL of each of the above solutions 11-19 was added to 98 μL of PC-3 medium to give mixed solutions 39-47 of the compound and the medium.
(§4) For 22Rv1 and PC-3 cells, 10 μL of each of the above solutions 30-38 or 39-47 was added to the above cell seed solution to give a total volume of 100 μL (90 μL+10 μL), where the concentrations of the compound in wells were 0 μM, 1.0 μM, 0.2 μM, 0.04 μM, 0.008 μM, 0.0016 μM, 0.00032 μM, 0.00006 μM, and 0.00001 μM. All concentrations were in triplicate.
(§5) After the above-treated cells were cultured for 3 days, 10 μL of the CCK8 solution (DOJINDO, Cat. No. PF725) was added to each well. The plate was incubated in an incubator at 37° C. for 1-4 h and then detected on a microplate reader for the reading at 450 nm.

VCaP cells = test: Anti-proliferative toxicity against prostate cancer cell line Vcap (CCK8); conditions: 3 days; for IC50: Homo sapiens, 72 h, CCK8
Experimental: as §1
(§6) Vcap cells (purchased from the Cell Bank of the Chinese Academy of Sciences, Cat. No. SCSP-5034) were subcultured in a culture medium (DMEM medium+1% penicillin-streptomycin dual-antibiotic solution+10% fetal bovine serum) in an incubator at 5% carbon dioxide and 37° C. 22Rv1 cells (purchased from the Cell Bank of the Chinese Academy of Sciences, Cat. No. TCHu100) were subcultured in a culture medium (RPMI-1640 medium+1% penicillin-streptomycin dual-antibiotic solution+10% fetal bovine serum) in an incubator at 5% carbon dioxide and 37° C.
VCap cells were seeded at 20000 cells/well (90 μL) on a 96-well plate and cultured for 72 h. The original medium was removed, and a new medium of 90 μL was added.
as §2
For VCap cells, the compound stock solution was diluted with DMSO to give DMSO solutions 1-10 at concentrations of 0 μM, 80 μM, 16 μM, 3.2 μM, 1.5 μM, 0.5 μM, 0.15 μM, 0.05 μM, 0.025 μM, and 0.0005 μM.
For Vcap cells, 2 μL of each of the above solutions 1-10 was added to 98 μL of Vcap medium to give mixed solutions 20-29 of the compound and the medium.
For Vcap cells, 10 μL of each of the above solutions 20-29 was added to the above cell seed solution to give a total volume of 100 μL (90 μL+10 μL), where the concentrations of the compound in wells were 0 μM, 0.16 μM, 0.032 μM, 0.006 μM, 0.003 μM, 0.001 μM, 0.0003 μM, 0.0001 μM, 0.00005 μM, and 0.00001 μM. All concentrations were in triplicate.
as §5

22Rv1 cells = test: Anti-proliferative toxicity against prostate cancer cell line 22Rv1 (CCK8); conditions: 3 days; for IC50: Homo sapiens, 72 h, CCK8
Experimental: as §1, §6
22Rv1 cells were seeded at 5000 cells/well (90 μL) on a 96-well plate and cultured for 48 h.
as §2, §3
For 22Rv1 cells, 2 μL of each of the above solutions 11-19 was added to 98 μL of 22Rv1 medium to give mixed solutions 30-38 of the compound and the medium.
as §4, §5

C[C@]12C=CC(=O)N[C@@H]1CC[C@@H]1[C@@H]2CC[C@]2(C)[C@@H](C(=O)Nc3cccc(OCCCNc4cccc5c4C(=O)N(C4CCC(=O)NC4=O)C5=O)c3)CC[C@@H]12 (stereo partly drawn) [C29, N-(3-((3-((4-(2-(3-(2,6-dioxopiperidine))-isoindole-1,3-dione))amino)propyl)oxy)phenyl)-3-oxo-4-aza-5α-androst-1-ene-17β-carboxamide]
IC50 (PC-3 cells): > 1000 nM | Anti-proliferative toxicity data in VCaP cells (VCaP cells; 0.00005 μM): 0.4% | Anti-proliferative toxicity data in VCaP cells (VCaP cells; 0.00010 μM): 25.8% | Anti-proliferative toxicity data in VCaP cells (VCaP cells; 0.00030 μM): 40.3% | Anti-proliferative toxicity data in VCaP cells (VCaP cells; 0.00100 μM): 70.8% | Anti-proliferative toxicity data in VCaP cells (VCaP cells; 0.00300 μM): 80.1% | Anti-proliferative toxicity data in VCaP cells (VCaP cells; 0.00600 μM): 88.3% | Anti-proliferative toxicity data in VCaP cells (VCaP cells; 0.03200 μM): 89.4% | Anti-proliferative toxicity data in VCaP cells (VCaP cells; 0.16000 μM): 90.0% | IC50 (VCaP cells): 0.1 to 10 nM | Anti-proliferative toxicity data in 22Rv1 cells (22Rv1 cells; 0.00006 μM): 0.2% | Anti-proliferative toxicity data in 22Rv1 cells (22Rv1 cells; 0.00032 μM): 5.6% | Anti-proliferative toxicity data in 22Rv1 cells (22Rv1 cells; 0.00160 μM): 27.6% | Anti-proliferative toxicity data in 22Rv1 cells (22Rv1 cells; 0.00800 μM): 64.2% | Anti-proliferative toxicity data in 22Rv1 cells (22Rv1 cells; 0.04000 μM): 70.8% | Anti-proliferative toxicity data in 22Rv1 cells (22Rv1 cells; 0.20000 μM): 72.4% | Anti-proliferative toxicity data in 22Rv1 cells (22Rv1 cells; 1.00000 μM): 73.5% | IC50 (22Rv1 cells): 0.1 to 10 nM

C[C@]12C=CC(=O)N[C@@H]1CC[C@@H]1[C@@H]2CC[C@]2(C)[C@@H](C(=O)Nc3cccc(OCCCNc4ccc5c(c4)C(=O)N(C4CCC(=O)NC4=O)C5=O)c3)CC[C@@H]12 (stereo partly drawn) [C30, N-(3-((3-((5-(2-(3-(2,6-dioxopiperidine))-isoindole-1,3-dione))amino)propyl)oxy)phenyl)-3-oxo-4-aza-5α-androst-1-ene-17β-carboxamide]
IC50 (PC-3 cells): > 1000 nM | IC50 (VCaP cells): > 1000 nM | IC50 (22Rv1 cells): > 1000 nM

C[C@]12C=CC(=O)N[C@@H]1CC[C@@H]1[C@@H]2CC[C@]2(C)[C@@H](C(=O)Nc3cccc(OCCCCNc4cccc5c4C(=O)N(C4CCC(=O)NC4=O)C5=O)c3)CC[C@@H]12 (stereo partly drawn) [C31, N-(3-((4-((4-(2-(3-(2,6-dioxopiperidine))-isoindole-1,3-dione))amino)butyl)oxy)phenyl)-3-oxo-4-aza-5α-androst-1-ene-17β-carboxamide]
IC50 (PC-3 cells): > 1000 nM | IC50 (VCaP cells): > 1000 nM | IC50 (22Rv1 cells): > 1000 nM

C[C@]12C=CC(=O)N[C@@H]1CC[C@@H]1[C@@H]2CC[C@]2(C)[C@@H](C(=O)Nc3cccc(OCCCCNc4ccc5c(c4)C(=O)N(C4CCC(=O)NC4=O)C5=O)c3)CC[C@@H]12 (stereo partly drawn) [C32, N-(3-((4-((5-(2-(3-(2,6-dioxopiperidine))-isoindole-1,3-dione))amino)butyl)oxy)phenyl)-3-oxo-4-aza-5α-androst-1-ene-17β-carboxamide]
IC50 (PC-3 cells): > 1000 nM | IC50 (VCaP cells): > 1000 nM | IC50 (22Rv1 cells): > 1000 nM

C[C@]12C=CC(=O)N[C@@H]1CC[C@@H]1[C@@H]2CC[C@]2(C)[C@@H](C(=O)Nc3cccc(OCCCCCNc4cccc5c4C(=O)N(C4CCC(=O)NC4=O)C5=O)c3)CC[C@@H]12 (stereo partly drawn) [C33, N-(3-((5-((4-(2-(3-(2,6-dioxopiperidine))-isoindole-1,3-dione))amino)pentyl)oxy)phenyl)-3-oxo-4-aza-5α-androst-1-ene-171β-carboxamide]
IC50 (PC-3 cells): > 1000 nM | IC50 (VCaP cells): > 1000 nM | IC50 (22Rv1 cells): > 1000 nM

C[C@]12C=CC(=O)N[C@@H]1CC[C@@H]1[C@@H]2CC[C@]2(C)[C@@H](C(=O)Nc3cccc(OCCCCCCNc4cccc5c4C(=O)N(C4CCC(=O)NC4=O)C5=O)c3)CC[C@@H]12 (stereo partly drawn) [C35, N-(3-((6-((4-(2-(3-(2,6-dioxopiperidine))-isoindole-1,3-dione))amino)hexyl)oxy)phenyl)-3-oxo-4-aza-5α-androst-1-ene-17β-carboxamide]
IC50 (PC-3 cells): > 1000 nM | IC50 (VCaP cells): > 1000 nM | IC50 (22Rv1 cells): > 1000 nM

Source: patent US20250213701A1, “MEDICAMENT FOR TREATING HUMAN TUMOR BASED ON ERF3A-TARGETING PROTEOLYSIS MECHANISM” (SUZHOU DEGEN BIO-MEDICAL CO., LTD., priority 2022, published 2025)
